Results published in ChEMBL document CHEMBL3885861, “Open TG-GATES”.

Organism: Rattus norvegicus
Experiment: Open TG-GATES - Regimen: Single
Type: toxicity, organism-based, Sprague-Dawley
Design: regimen Single, gender Male, age 6 weeks
Settings: in vivo, iv, route intravenous injection; for KIDNEY_L / KIDNEY_R / KIDNEY_TOTAL: tissue Kidney; for LIVER: tissue Liver; for ALP / ALT / BUN / CRE / DBIL / GLC / IP / K / LDH / PL / RALB / TBIL / TC / TG / TP / gamma-GTP / AST / Na: tissue Plasma
[1] = 30 mg/kg, 3 h, tissue Blood, dose level Middle
[2] = 30 mg/kg, 3 h, dose level Middle
[3] = 30 mg/kg, 6 h, tissue Blood, dose level Middle
[4] = 30 mg/kg, 6 h, dose level Middle
[5] = 30 mg/kg, 9 h, dose level Middle
[6] = 30 mg/kg, 9 h, tissue Blood, dose level Middle
[7] = 30 mg/kg, 24 h, dose level Middle
[8] = 30 mg/kg, 24 h, tissue Blood, dose level Middle
[9] = 100 mg/kg, 3 h, tissue Blood, dose level High
[10] = 100 mg/kg, 3 h, dose level High
[11] = 100 mg/kg, 6 h, dose level High
[12] = 100 mg/kg, 6 h, tissue Blood, dose level High
[13] = 100 mg/kg, 9 h, dose level High
[14] = 100 mg/kg, 9 h, tissue Blood, dose level High
[15] = 100 mg/kg, 24 h, dose level High
[16] = 100 mg/kg, 24 h, tissue Blood, dose level High

CARBOPLATIN
APTT [1]: 23.3 s
Bas [1]: 0%
Eos [1]: 1%
Fbg [1]: 273.2 mg/dL
Hb [1]: 13 g/dL
Ht [1]: 40.3%
Lym [1]: 81.8%
MCV [1]: 63.6 fL
Mono [1]: 2.4%
PT [1]: 15.6 s
Plat [1]: 123.8 x10_4/uL
RBC [1]: 633.4 x10_4/ul
Ret [1]: 5.6%
WBC [1]: 77.3 x10_2/uL
KIDNEY_L [2]: 0.9 g
KIDNEY_R [2]: 0.9 g
KIDNEY_TOTAL [2]: 1.9 g
LIVER [2]: 9.5 g
ALP [2]: 1595 IU/L
ALT [2]: 41.4 IU/L
BUN [2]: 11 mg/dL
CRE [2]: 0.2 mg/dL
DBIL [2]: 0 mg/dL
GLC [2]: 175 mg/dL
IP [2]: 8.6 mg/dL
K [2]: 4 meq/L
LDH [2]: 183.4 IU/L
PL [2]: 126.6 mg/dL
RALB [2]: 3 g/dL
TBIL [2]: 0.014 mg/dL
TC [2]: 67 mg/dL
TG [2]: 75 mg/dL
TP [2]: 5.4 g/dL
gamma-GTP [2]: 1.2 IU/L
APTT [3]: 22.6 s
Bas [3]: 0%
Eos [3]: 0.8%
Fbg [3]: 273.4 mg/dL
Hb [3]: 12.8 g/dL
Ht [3]: 39.7%
Lym [3]: 77.4%
MCHC [3]: 32.2%
MCV [3]: 63.8 fL
Mono [3]: 4%
Neu [3]: 16.6%
PT [3]: 15.9 s
Plat [3]: 120 x10_4/uL
RBC [3]: 623.2 x10_4/ul
Ret [3]: 6.3%
WBC [3]: 102.3 x10_2/uL
KIDNEY_L [4]: 0.9 g
KIDNEY_R [4]: 0.9 g
KIDNEY_TOTAL [4]: 1.8 g
LIVER [4]: 8.7 g
ALP [4]: 1276.8 IU/L
ALT [4]: 42 IU/L
AST [4]: 77.8 IU/L
CRE [4]: 0.2 mg/dL
DBIL [4]: 0 mg/dL
GLC [4]: 174.6 mg/dL
IP [4]: 9.6 mg/dL
K [4]: 4.4 meq/L
Na [4]: 139.4 meq/L
PL [4]: 126 mg/dL
RALB [4]: 2.9 g/dL
TBIL [4]: 0.012 mg/dL
TC [4]: 73.4 mg/dL
TG [4]: 68.6 mg/dL
TP [4]: 5.3 g/dL
gamma-GTP [4]: 1 IU/L
TERMINAL_BW [5]: 197.2 g
APTT [6]: 24.3 s
Bas [6]: 0%
Eos [6]: 0.6%
Fbg [6]: 280.2 mg/dL
Hb [6]: 12.8 g/dL
Ht [6]: 39.6%
Lym [6]: 72.2%
MCHC [6]: 32.4%
MCV [6]: 62 fL
Mono [6]: 2.4%
Neu [6]: 24%
PT [6]: 15.9 s
Plat [6]: 119 x10_4/uL
RBC [6]: 638.6 x10_4/ul
Ret [6]: 5.9%
WBC [6]: 68.8 x10_2/uL
KIDNEY_L [5]: 0.9 g
KIDNEY_R [5]: 1 g
KIDNEY_TOTAL [5]: 1.9 g
LIVER [5]: 7.9 g
ALP [5]: 1295.4 IU/L
ALT [5]: 38.8 IU/L
AST [5]: 81 IU/L
BUN [5]: 10 mg/dL
CRE [5]: 0.1 mg/dL
DBIL [5]: 0 mg/dL
GLC [5]: 173.6 mg/dL
IP [5]: 9.7 mg/dL
K [5]: 4.3 meq/L
LDH [5]: 182.2 IU/L
Na [5]: 139.6 meq/L
PL [5]: 118.8 mg/dL
RALB [5]: 2.9 g/dL
TBIL [5]: 0.014 mg/dL
TC [5]: 63 mg/dL
TG [5]: 55 mg/dL
TP [5]: 5.4 g/dL
gamma-GTP [5]: 1.2 IU/L
TERMINAL_BW [7]: 208.3 g
APTT [8]: 23 s
Bas [8]: 0%
Eos [8]: 0.8%
Fbg [8]: 295.6 mg/dL
Hb [8]: 12.9 g/dL
Ht [8]: 39.9%
Lym [8]: 88.4%
MCHC [8]: 32.2%
Mono [8]: 3.4%
Neu [8]: 6.6%
PT [8]: 16.1 s
Plat [8]: 125 x10_4/uL
RBC [8]: 639.8 x10_4/ul
Ret [8]: 4.5%
WBC [8]: 72.2 x10_2/uL
KIDNEY_L [7]: 0.9 g
KIDNEY_R [7]: 1 g
KIDNEY_TOTAL [7]: 1.9 g
LIVER [7]: 9.3 g
ALP [7]: 1504.2 IU/L
ALT [7]: 44.8 IU/L
AST [7]: 72.8 IU/L
CRE [7]: 0.2 mg/dL
DBIL [7]: 0.002 mg/dL
GLC [7]: 179.6 mg/dL
IP [7]: 8.1 mg/dL
K [7]: 4.3 meq/L
LDH [7]: 211.2 IU/L
Na [7]: 139.8 meq/L
PL [7]: 126.6 mg/dL
RALB [7]: 3 g/dL
TBIL [7]: 0.02 mg/dL
TC [7]: 70.4 mg/dL
TG [7]: 60.4 mg/dL
TP [7]: 5.5 g/dL
gamma-GTP [7]: 1.2 IU/L
APTT [9]: 22.8 s
Bas [9]: 0%
Eos [9]: 0.6%
Fbg [9]: 275 mg/dL
MCHC [9]: 32.4%
MCV [9]: 64.2 fL
Mono [9]: 2.8%
Neu [9]: 17.2%
PT [9]: 15.7 s
Plat [9]: 123.5 x10_4/uL
RBC [9]: 630.8 x10_4/ul
Ret [9]: 6.4%
WBC [9]: 81.4 x10_2/uL
KIDNEY_L [10]: 0.9 g
KIDNEY_R [10]: 0.9 g
KIDNEY_TOTAL [10]: 1.9 g
LIVER [10]: 9.2 g
ALP [10]: 1630.8 IU/L
ALT [10]: 45 IU/L
BUN [10]: 12 mg/dL
CRE [10]: 0.2 mg/dL
DBIL [10]: 0 mg/dL
GLC [10]: 170.6 mg/dL
IP [10]: 9.1 mg/dL
K [10]: 4.2 meq/L
LDH [10]: 173.8 IU/L
PL [10]: 129 mg/dL
RALB [10]: 3 g/dL
TBIL [10]: 0.014 mg/dL
TC [10]: 69.8 mg/dL
TG [10]: 70.8 mg/dL
TP [10]: 5.3 g/dL
gamma-GTP [10]: 1.2 IU/L
TERMINAL_BW [11]: 200.2 g
APTT [12]: 24.4 s
Bas [12]: 0%
Eos [12]: 0.8%
Fbg [12]: 286.8 mg/dL
Ht [12]: 41.1%
Lym [12]: 76%
MCH [12]: 20 pg
MCHC [12]: 32.2%
MCV [12]: 62.2 fL
Mono [12]: 6.4%
Plat [12]: 125.8 x10_4/uL
RBC [12]: 663.8 x10_4/ul
Ret [12]: 5.2%
WBC [12]: 91 x10_2/uL
KIDNEY_L [11]: 1 g
KIDNEY_R [11]: 1 g
KIDNEY_TOTAL [11]: 1.9 g
LIVER [11]: 8.2 g
ALP [11]: 1531.2 IU/L
ALT [11]: 40.4 IU/L
AST [11]: 84.4 IU/L
BUN [11]: 10.8 mg/dL
CRE [11]: 0.2 mg/dL
DBIL [11]: 0 mg/dL
GLC [11]: 176.6 mg/dL
IP [11]: 9.5 mg/dL
K [11]: 4.2 meq/L
LDH [11]: 177.8 IU/L
Na [11]: 140 meq/L
PL [11]: 109.6 mg/dL
RALB [11]: 2.9 g/dL
TBIL [11]: 0.02 mg/dL
TC [11]: 61.8 mg/dL
TG [11]: 37.4 mg/dL
TP [11]: 5.3 g/dL
gamma-GTP [11]: 1.2 IU/L
TERMINAL_BW [13]: 204.6 g
APTT [14]: 24.9 s
Bas [14]: 0%
Eos [14]: 0.8%
Fbg [14]: 299.4 mg/dL
Ht [14]: 40.5%
Lym [14]: 73.8%
MCHC [14]: 32.4%
MCV [14]: 62.8 fL
Mono [14]: 3.4%
Neu [14]: 21.2%
PT [14]: 15.9 s
Plat [14]: 136.6 x10_4/uL
RBC [14]: 645.2 x10_4/ul
Ret [14]: 6.1%
WBC [14]: 69 x10_2/uL
KIDNEY_L [13]: 0.9 g
KIDNEY_R [13]: 1 g
KIDNEY_TOTAL [13]: 1.9 g
LIVER [13]: 8.4 g
ALP [13]: 1146.6 IU/L
ALT [13]: 34.4 IU/L
AST [13]: 72.8 IU/L
CRE [13]: 0.2 mg/dL
DBIL [13]: 0 mg/dL
GLC [13]: 174.8 mg/dL
IP [13]: 9.9 mg/dL
K [13]: 4.5 meq/L
LDH [13]: 172.4 IU/L
Na [13]: 139.4 meq/L
RALB [13]: 2.9 g/dL
TBIL [13]: 0.022 mg/dL
TC [13]: 69.2 mg/dL
TG [13]: 54.4 mg/dL
TP [13]: 5.2 g/dL
gamma-GTP [13]: 1.6 IU/L
TERMINAL_BW [15]: 203.7 g
APTT [16]: 23.6 s
Bas [16]: 0%
Eos [16]: 0.2%
Fbg [16]: 306.2 mg/dL
Hb [16]: 12.9 g/dL
Ht [16]: 40.2%
Lym [16]: 82.6%
MCHC [16]: 32.2%
Mono [16]: 4%
Neu [16]: 12%
PT [16]: 16.2 s
Plat [16]: 123.1 x10_4/uL
RBC [16]: 641.4 x10_4/ul
Ret [16]: 2.7%
WBC [16]: 69.6 x10_2/uL
KIDNEY_L [15]: 0.9 g
KIDNEY_R [15]: 1 g
KIDNEY_TOTAL [15]: 1.9 g
LIVER [15]: 8.8 g
ALP [15]: 1486.6 IU/L
ALT [15]: 41.2 IU/L
AST [15]: 76.8 IU/L
CRE [15]: 0.2 mg/dL
DBIL [15]: 0.002 mg/dL
GLC [15]: 179.2 mg/dL
IP [15]: 8.4 mg/dL
K [15]: 4.3 meq/L
LDH [15]: 176.8 IU/L
PL [15]: 135.6 mg/dL
RALB [15]: 3.1 g/dL
TBIL [15]: 0.022 mg/dL
TC [15]: 78.6 mg/dL
TG [15]: 51.2 mg/dL
TP [15]: 5.6 g/dL
gamma-GTP [15]: 1.2 IU/L
